Laboratory results as given in BigSolDB 2.1.

CN1COCN(Cc2cnc(Cl)s2)C1=N[N+](=O)[O-]
solubility (mole fraction)
Details | 278.15 K | 283.15 K | 288.15 K | 293.15 K | 298.15 K | 303.15 K | 308.15 K | 313.15 K | 318.15 K | 323.15 K
in 1,4-dioxane | – | – | 0.00255 | 0.00328 | 0.00404 | 0.00523 | 0.00637 | 0.00792 | 0.00985 | 0.0123
in 2-ethoxyethanol | 0.00319 | 0.00411 | 0.00523 | 0.00627 | 0.00722 | 0.00839 | 0.01 | 0.0117 | 0.0141 | 0.0168
in 2-methoxyethanol | 0.00727 | 0.00895 | 0.011 | 0.013 | 0.0152 | 0.0185 | 0.0218 | 0.026 | 0.0311 | 0.0374
in DMAc | 0.0679 | 0.074 | 0.0817 | 0.0902 | 0.0988 | 0.108 | 0.12 | 0.133 | 0.145 | 0.157
in DMSO | – | – | 0.0689 | 0.0786 | 0.0902 | 0.103 | 0.117 | 0.134 | 0.152 | 0.172
in acetic acid | – | – | – | 0.013 | 0.0172 | 0.0227 | 0.0292 | 0.0387 | 0.0547 | 0.07
in acetonitrile | 0.00704 | 0.00827 | 0.0105 | 0.0125 | 0.0149 | 0.0183 | 0.0227 | 0.0278 | 0.0344 | 0.0422
in methanol | 0.000628 | 0.000817 | 0.00111 | 0.00141 | 0.00169 | 0.00225 | 0.00294 | 0.00397 | 0.00486 | 0.0063
in propionic acid | 0.000769 | 0.00113 | 0.00147 | 0.00185 | 0.00252 | 0.00329 | 0.00406 | 0.00562 | 0.00739 | 0.00939
